{"source": "patent US8669257B2", "about": "“Phenazine derivatives and uses thereof as potassium channel modulators” (The Johns Hopkins University, priority 2007, dated 2014)", "key": {"[1]": {"target": "T1, human Kv1.5 (Homo sapiens, UniProt P22460)", "T1 construct": "expressed in transfected cells; host or cells: MEL cells", "T1 sequence (P22460 whole entry)": "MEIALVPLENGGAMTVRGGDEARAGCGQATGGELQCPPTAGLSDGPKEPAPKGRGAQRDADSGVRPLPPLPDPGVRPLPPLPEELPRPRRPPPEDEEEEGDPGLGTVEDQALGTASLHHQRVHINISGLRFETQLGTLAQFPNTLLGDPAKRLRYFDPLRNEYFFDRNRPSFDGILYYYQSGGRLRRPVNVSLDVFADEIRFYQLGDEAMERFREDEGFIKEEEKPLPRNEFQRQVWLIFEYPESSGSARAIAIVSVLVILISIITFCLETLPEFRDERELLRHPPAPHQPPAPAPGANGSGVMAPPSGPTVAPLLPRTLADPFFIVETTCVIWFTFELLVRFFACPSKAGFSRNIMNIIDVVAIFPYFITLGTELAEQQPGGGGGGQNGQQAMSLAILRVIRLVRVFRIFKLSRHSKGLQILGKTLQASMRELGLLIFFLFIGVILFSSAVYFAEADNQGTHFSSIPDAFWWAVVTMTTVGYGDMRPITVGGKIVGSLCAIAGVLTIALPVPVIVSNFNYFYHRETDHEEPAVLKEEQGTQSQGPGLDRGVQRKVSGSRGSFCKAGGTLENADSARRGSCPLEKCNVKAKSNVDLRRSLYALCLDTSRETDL", "test": "Patch-clamp of heterologous human Kv1.5 expressed in MEL cells", "type": "cell-based", "protocol": "(§1) Patch pipettes, pulled from glass capillaries (inner diameter 1.5 mm, Kimble products) with a horizontal puller (Sutter instruments, Modell P-97), were fire-polished, and had resistances between 2 and 4 MOhm. Patch-clamp experiments were performed in the tight-seal whole-cell configuration at room temperature (22-24° C.). High-resolution current recordings were acquired by a computer-based patch-clamp amplifier system (EPC-9, HEKA). Immediately following establishment of the whole-cell configuration, every two seconds voltage ramps of 50 ms duration spanning the voltage range of −100 to +100 mV for Jurkat T-cells and −150 to +150 mV for HEK293 were delivered from a holding potential (Vh) of −70 mV for Jurkats and 0 mV for HEK293 cells over a period of 300-600 s. […] Capacitive currents and series resistance were determined and corrected before each voltage ramp using the automatic capacitance compensation of the EPC-9. […] Kv1.3 currents in Jurkat T-cells were measured at +80 mV. Heterologously expressed Kv1.1, Kv1.2, Kv1.3, Kv1.5 and Kv3.1 were assessed at +80 mV except in Figure S7, where currents were additionally measured at the more physiological voltage of 0 mV. CRAC currents in HEK293 cells were assessed at −80 mV. […]"}, "[2]": {"test_system": "NF-κB luciferase reporter", "test": "NF-κB luciferase reporter assay in Jurkat T-cells", "type": "cell-based, human", "conditions": "FIG. 1C"}, "[3]": {"test_system": "murine skin transplant", "test": "Mouse skin transplantation with adoptive transfer of murine cells (parallel experiment)", "type": "in vivo", "conditions": "murine skin and total murine T-cells", "source_text": "FIG. 5. […] (A) Representative skin grafts at different days post-transplantation. Human foreskin was transplanted onto Pfp/Rag2−/− mice. 1.0×10^8 human peripheral blood lymphocytes (PBL) were adoptively transferred into each animal at Day 7 post-transplantation. Administration of clofazimine or carrier control (olive oil) was also initiated at Day 7. * Days after skin transplantation/cell transfer. (B) Effect of clofazimine on the mean survival time of transplanted human (n=5) and mouse (n=4) skin grafts. The mouse skin transplantation was performed using Balb/c mice as skin donors, B6 Rag1−/− mice as recipients and PBL from B6 for adoptive transfer."}, "[4]": {"test_system": "calcium oscillation in Jurkat T-cells", "test": "Calcium oscillation in Jurkat T-cells (10 nM TG)", "type": "cell-based, human", "conditions": "for cells with elongated calcium oscillation period: 10 nM TG, Jurkat T-cells", "protocol": "JurkaT-cells were attached to L-lysine-coated glass dishes (MatTek). Cells were loaded with fura-2-AM (Invitrogen_F-1201) for 45 min before they were washed sequentially with growth medium and Ca^2+-free HBSS. Fluorescence excitation wavelengths were set at 350 and 380 nm, respectively, on a Zeiss Axiovert 200M microscope while emission wavelength was set at 510 nm. Changes in intracellular calcium concentrations were determined by fluorescence intensity ratio ([…]/F380)."}, "[5]": {"test_system": "endogenous NFATc2 dephosphorylation", "test": "Dephosphorylation of endogenous NFATc2 in Jurkat T-cells (Western blot)", "type": "cell-based, human", "conditions": "ionomycin treatment", "protocol": "Jurkat T-cells were pretreated with indicated compounds for 1 h before 3 μM (final concentration) ionomycin was added. Cells were harvested after 30 min and lysed in a lysis buffer [40 mM Tris (pH 7.8), 1% NP-40, 10 mM EDTA, 60 mM […] and common protease inhibitors] by sonication. NFATc2 was resolved by 8% SDS-PAGE followed by Western blot analysis using anti-NFAT antibodies (Santa-cruz Sc-7296, 1:100 dilution)."}, "[6]": {"test_system": "mouse skin or heart transplant", "test": "Mouse skin or heart transplant models (initial experiments)", "type": "in vivo"}, "[7]": {"test_system": "calcineurin-NFATc2 interaction", "test": "GST-NFATc2 pull-down of calcineurin", "type": "binding"}, "[8]": {"test_system": "human foreskin graft in Pfp/Rag2−/− mice with human PBL", "test": "Human T-cell-mediated human skin graft rejection in immunodeficient mice", "type": "in vivo, mouse", "source_text": "Kv1.3 has been implicated in T-cell activation and has served as a molecular target for developing novel immunosuppressive agents. Given that clofazimine is already used in the clinic, albeit for a completely different indication, we wondered whether it is efficacious in animal models of organ transplantation. […] These negative results are not surprising given that Kv1.3 plays distinct roles in humans and rodents, as it has been shown that Kv1.3 is dispensable in mice due to the up-regulation of other chloride channels. […] To overcome this problem, we turned to a model of reconstituted human T-cell-mediated human skin rejection in immunodeficient mice. We thus transplanted human foreskin into Pfb-Rag2−/− mice that lack T, B and NK cells. Upon healing of the skin graft for about 7 days, a total of 100 million human peripheral blood lymphocytes from an unrelated donor were adoptively transferred into the same animals. The animals were treated orally with either DMSO (control) or clofazimine at 50 mg/kg/day for a total of 10 days (FIG. 5A). For the control group, the transplanted foreskin was rejected with a median survival time of 11 days (FIG. 5B).\nThe experimental procedure is similar to that described previously. Clofazimine suspension in olive oil was administered p.o. at 50 mg/kg/day in a total volume of 0.2 ml per administration."}, "[9]": {"test_system": "calcineurin", "test": "Calcineurin enzymatic activity in vitro", "type": "biochemical", "conditions": "substrates para-nitrophenylphosphate or immunoprecipitated NFATc2"}, "[10]": {"target": "T2, mouse Kv3.1 (Mus musculus, UniProt P15388)", "T2 construct": "expressed in transfected cells; host or cells: L929 cells", "T2 sequence (P15388 whole entry)": "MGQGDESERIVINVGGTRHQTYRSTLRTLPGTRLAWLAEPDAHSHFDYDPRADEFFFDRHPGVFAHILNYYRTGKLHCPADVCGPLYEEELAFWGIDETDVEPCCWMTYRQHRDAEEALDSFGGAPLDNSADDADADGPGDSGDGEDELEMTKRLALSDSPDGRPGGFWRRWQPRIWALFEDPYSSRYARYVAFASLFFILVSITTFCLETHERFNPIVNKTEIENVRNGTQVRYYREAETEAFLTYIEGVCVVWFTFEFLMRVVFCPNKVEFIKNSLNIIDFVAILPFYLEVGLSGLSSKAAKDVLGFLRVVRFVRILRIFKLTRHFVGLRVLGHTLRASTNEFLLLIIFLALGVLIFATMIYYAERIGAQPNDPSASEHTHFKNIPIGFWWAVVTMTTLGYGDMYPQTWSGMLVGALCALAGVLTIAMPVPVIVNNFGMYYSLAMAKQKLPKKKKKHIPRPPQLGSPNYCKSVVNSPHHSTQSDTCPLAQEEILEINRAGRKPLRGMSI", "test": "Patch-clamp of heterologous mouse Kv3.1 expressed in L929 cells", "type": "cell-based", "protocol": "as §1"}, "[11]": {"test_system": "mouse primary T-cells", "test": "IL-2 production from anti-CD3/anti-CD28-stimulated mouse primary T-cells", "type": "cell-based", "conditions": "n=3"}}, "note": "“Also recorded” adds a separate entry of the source."}
{"molecule": "CC(C)/N=c1\\cc2n(-c3ccc(Cl)cc3)c3ccccc3nc-2cc1Nc1ccc(Cl)cc1", "note": "[clofazimine, Clofazimine]", "values": [{"measurement": "block of current, human Kv1.5", "setting": "[1]; 10 μM", "value": "less than 50%"}, {"measurement": "IC50", "setting": "[1]; inferred from block at 10 μM", "value": "> 10", "unit": "µM"}, {"measurement": "NF-κB luciferase reporter less sensitive than IL-2 promoter-driven reporter", "setting": "[2]", "value": "about 40 fold"}, {"measurement": "IC50", "setting": "[2]; Homo sapiens, Jurkat, PMA/ionomycin, n=6", "value": "2.43 ± 1.25", "unit": "µM"}, {"measurement": "effect on survival of murine skin transplant", "setting": "[3]", "value": "no effect on the survival"}, {"measurement": "cells with elongated calcium oscillation period", "setting": "[4]", "value": "Over 80%"}, {"measurement": "cells with elongated calcium oscillation period", "setting": "[4]; listed as Clofazimine", "value": "more than 80%"}, {"measurement": "effect on calcium oscillation pattern", "setting": "[4]; low concentration of thapsigargin", "value": "decreased the amplitude and increased the period"}, {"measurement": "effect on dephosphorylation of endogenous NFATc2", "setting": "[5]", "value": "inhibited ionomycin-induced dephosphorylation of NFATc2 in a dose-dependent manner"}, {"measurement": "effect on dephosphorylation of endogenous NFATc2", "setting": "[5]; listed as Clofazimine", "value": "inhibits dephosphorylation"}, {"measurement": "beneficial effects in mouse skin or heart transplant models", "setting": "[6]", "value": "failed to show any beneficial effects"}, {"measurement": "effect on binding of GST-NFATc2 to calcineurin", "setting": "[7]", "value": "Nor did it affect the binding; also recorded: does not interfere with calcineurin-NFATc2 interaction"}, {"measurement": "mean survival time of transplanted human skin", "setting": "[8]; 50 mg/kg/day orally for 10 days, n=5", "value": 35, "unit": "days"}, {"measurement": "effect on human T-cell-mediated skin graft rejection", "setting": "[8]; immunodeficient mice", "value": "inhibits human T-cell-mediated skin graft rejection"}, {"measurement": "effect on enzymatic activity of calcineurin in vitro", "setting": "[9]", "value": "no effect on the enzymatic activity; also recorded: does not inhibit the protein phosphatase activity"}, {"measurement": "block of current, mouse Kv3.1", "setting": "[10]; 10 μM", "value": "less than 50%"}, {"measurement": "IC50", "setting": "[10]; inferred from block at 10 μM", "value": "> 10", "unit": "µM"}, {"measurement": "inhibition of IL-2 production in primary mouse T-cells", "setting": "[11]", "value": "failed to observe a dose-dependent inhibition"}]}
